For series [1] the following is noted: compared to Tc; cited from earlier work.
In another series the target is lacR (Escherichia coli, UniProt P03023). Particulars: cited from earlier work.
Another series deals with lacR/O. Particulars: eucaryotic cells; cited from earlier work.
The target in the next series is T1, tTA (Escherichia coli, UniProt P04483).
T1 construct: LOCATION: 1..207; expressed in transfected cells
Kind of series: Kinetics of tetracycline action on luciferase activity in X1 cells. Particulars: for Luciferase activity after addition of tetracycline, share of original value: tetracycline 1 μg/ml. The class given is cell-based, human. The procedure: FIG. 3B: Kinetics of tetracycline action. X1 cells were grown in 100 mm dishes to 80% confluency in the absence or presence (0.1 μg/ml) of tetracycline. At time 0, cells were washed with phosphate-buffered saline and split into smaller culture dishes ( 1/20th of the initial cultures per 35 mm dish). Half of the cultures remained in tetracycline-free medium (▪) and the other half were incubated in the presence of tetracycline (1 μg/ml; □). The X1 culture grown in tetracycline-containing medium was split in the same manner; one half was further incubated in the presence of tetracycline (●), whereas the other half was transferred to tetracycline-free medium (∘). At the times indicated, aliquots were harvested and examined for luciferase activity. The slight increase in luciferase activity monitored at 4 hr in the culture containing tetracycline (●) is reproducible and reflects luciferase induction during the washing step.
The time course of tetracycline action was analyzed in cultures grown in the absence or presence of tetracycline. At time 0, the antibiotic was added to the tetracycline-free cultures (final concentration, 1 μg/ml), whereas the tetracycline-containing cultures were rinsed and incubated in fresh antibiotic-free medium (FIG. 3 panel b). At various times, cells were harvested and analyzed for luciferase activity. […] A similarly rapid reduction of luciferase activity was observed when tetracycline was added to the fully active tetracycline-free system: within 8 hr activity dropped to about 10% and reached <2% of its original value after 12 hr.

Another series relates to HeLa cells. Kind of series: Growth behavior and morphology of HeLa cells in tetracycline-containing medium. The class given is cell-based, human. The protocol: The tTA inactivation studies were carried out with 1 μg of tetracycline per ml in the culture medium. […] Only at tetracycline concentrations well above 10 μg/ml were such changes observed upon prolonged incubation.

T1 sequence (P04483 whole entry, added parts left off): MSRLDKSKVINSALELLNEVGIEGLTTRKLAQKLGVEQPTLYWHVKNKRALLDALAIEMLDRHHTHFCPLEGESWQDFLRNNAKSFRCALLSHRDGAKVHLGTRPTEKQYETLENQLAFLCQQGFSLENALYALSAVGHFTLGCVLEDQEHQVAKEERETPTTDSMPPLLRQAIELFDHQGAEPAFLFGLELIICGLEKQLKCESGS
Chain of lacR (P03023 whole entry): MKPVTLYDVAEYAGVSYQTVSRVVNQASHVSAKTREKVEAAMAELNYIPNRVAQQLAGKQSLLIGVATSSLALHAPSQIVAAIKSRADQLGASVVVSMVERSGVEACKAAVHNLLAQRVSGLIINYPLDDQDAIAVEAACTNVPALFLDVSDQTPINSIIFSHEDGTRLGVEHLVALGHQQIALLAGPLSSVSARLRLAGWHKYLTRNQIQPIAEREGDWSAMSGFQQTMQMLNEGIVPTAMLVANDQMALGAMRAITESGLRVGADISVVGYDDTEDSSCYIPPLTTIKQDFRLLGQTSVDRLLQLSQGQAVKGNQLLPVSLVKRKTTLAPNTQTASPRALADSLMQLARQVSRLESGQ

As to `CN(C)[C@H]1C(O)=C(C(N)=O)C(=O)[C@@]2(O)C(O)=C3C(=O)c4c(O)cccc4[C@@](C)(O)[C@H]3[C@H](O)[C@@H]12` [epioxytetracycline], the Antibiotic activity result in series [1] is on record as “reduced antibiotic activity compared to Tc”.

Take `CC(C)S[C@@H]1O[C@H](CO)[C@H](O)[C@H](O)[C@H]1O` [IPTG, isopropyl.β-D-thiogalactopyranoside]: the “ka of lacR for IPTG” value on lacR was 10^6 M^−1. Also, the “Reduction of binding constant kRo by the inducer” value on lacR (lacR/O system) was 1000 fold. Also, in the series with lacR/O, the “Induction by IPTG” value is “only moderate induction”.

With `CN(C)[C@@H]1C(O)=C(C(N)=O)C(=O)[C@@]2(O)C(O)=C3C(=O)c4c(O)cccc4[C@@](C)(O)[C@H]3C[C@@H]12` [tetracycline], the entries for the “Luciferase activity after addition of tetracycline, share of original value” at tTA (after 12 hr) and at tTA (within 8 hr) were less than 2% and “about 10%”, respectively. Besides, the “Luciferase activity after depletion of tetracycline, share of fully induced (steady-state) level” value at tTA (within 12 hr after shift to tetracycline-free medium) was more than 20%. Besides, the “Tetracycline concentration at which changes in growth behavior or morphology were observed” value with HeLa cells (prolonged incubation) was “above 10 μg/ml”. Further, the “Change in growth behavior or morphology of HeLa cells” value in the series on HeLa cells (tetracycline 0.1 μg/ml) is given as “no change in growth behavior or morphology”.

For `Cc1c2c(c(O)c3c(O)cccc13)C(=O)[C@]1(O)C(=O)C(C(N)=O)=C(O)[C@@H](N(C)C)[C@@H]1C2` [anhydrotetracycline], the Antibiotic activity result in series [1] is given as “reduced antibiotic activity compared to Tc”.

Values taken from patent US6783756B2, “Methods for regulating gene expression” (Abbott GmbH & Co., KG, priority 1993, dated 2004).
